assay: Agilent ZORBAX 300 SB-C18, 150 × 1 mm, 3.5 µm; A: water + 0.01% heptafluorobutyric acid; B: acetonitrile + 0.01% heptafluorobutyric acid; gradient (min/%B) 0/0 100/90; details: stereoisomer not certain

Compound	LC retention time [min]
O=C(O)CCNc1cc(C(=O)O)ccc1C(=O)O	7.69
CCN1CC(CCN2CCOCC2)C(c2ccccc2)(c2ccccc2)C1=O (stereo not drawn)	9.72
Cn1c(=O)n(C)c2cc(N3CCCCC3)c(N)cc21	8.49
OC(CCN1CCCC1)(c1ccccc1)C1CCCCC1 (stereo not drawn)	11.5
CCCC(C)N (stereo not drawn)	7.09
Cc1ccc(N2C(=O)CC(N(CCc3ccccc3)C(=S)Nc3cccc(C)c3)C2=O)cc1 (stereo not drawn)	17.6
CCN(CC)CCn1cnc2c1c(=O)n(C)c(=O)n2C	7.8
Cc1ccc(NC(=S)NC2CC(C)(C)NC(C)(C)C2)cc1	9.5
CCCCCCCCNCCCCCCCC	14.8
Cc1cccc(NC(N)=S)n1	8.81
Nc1cc(C(=O)N2CCCCC2)cc(C(=O)N2CCCCC2)c1	9.88
C=CCC1(C(C)C)C(=O)NC(=O)NC1=O	9.74
CCN1C(=O)C2C(C)NC3(C(=O)Nc4ccccc43)C2C1=O (stereo not drawn)	8.61
Nc1ccccc1C(=O)NN=C1CCCC1	10.1
CCCOC(=O)CCNc1n[nH]c(=O)[nH]c1=O	8.44
CC(=O)C1(O)CCC2C3CC(C)C4=CC(=O)CCC4(C)C3CCC21C (stereo not drawn)	15.2
CCOC(=O)c1c(N)n(C(C)=O)[nH]c1=O	6.93
NCCc1csc2c1CCCC2	9.41
CCOC1CCC2CC3C4CCC(O)C5OC1C2C45CCN3C (stereo not drawn)	8.78
Cc1c(O)c(=O)ccn1C	6.47
CCN(CC)c1ccc(N=Cc2ccc(N(CC)CC)cc2O)cc1	11.5
Cc1ccc(NC(=S)NC2CC(C)(C)NC(C)(C)C2)c(C)c1	9.61

Compound	LC retention time [min]
c1ccc2[nH]cnc2c1	7.09
O=C(O)CCC(=O)Nc1ccc2c(c1)CCCC2	11.2
NNC(=O)C(O)C(O)C(=O)NN (stereo not drawn)	1.94
c1cc(N2CCCC2)ccn1	7.65
CNC(=S)Nc1c(C)cccc1C	9.89
Cc1ccc(C(=O)O)c(=O)[nH]1	6.43
CC1=NN(Cc2c[nH]c3ccccc23)C(C)(C)C1	9.37
COc1cc(NC(C)=O)cc(OC)c1OC	8.42
CCCCCCn1c2ccccc2c2cc(C(=O)O)ccc21	17.8
Cc1nnc(N)[nH]c1=O	2.72
CCc1ccc(N2CC(C(=O)Nc3ccc(N(C)C)cc3)CC2=O)cc1 (stereo not drawn)	10.4
O=C1c2ccccc2CN1CCNC(=S)NC1CCCCC1	12
CCCCN	6.72
COC(=O)CCC(=O)Nc1ccc(C)cc1C	11.7
Cc1cc(N)cc(C)c1O	6.91
CCc1ccc(NCCC(=O)c2ccc3c(c2)Cc2ccccc2-3)cc1	16.3
COc1ccc2cc3[n+](cc2c1OC)CCc1cc2c(cc1-3)OCO2	10.6
COC(=O)c1ccccc1NCc1ccccc1CNc1ccccc1C(=O)OC	20.7
COC(=O)CN	3.64
CN(C)c1nc(N(C)C)nc(N(C)C)n1	9.15
Cc1ccccc1CN1CCN(Cc2c[nH]c3ccccc23)CC1	10.8
CNCCNC	6.51

Compound	LC retention time [min]
O=CC1C(=O)Nc2ccccc21 (stereo not drawn)	8.65
COC(=O)CCN1CCCCC1	7.02
CC(=O)OC1(C(C)=O)CCC2C3CC(C)C4=CC(=O)CCC4(C)C3CCC21C (stereo not drawn)	17
Cc1cccc(CN)c1	7.91
CN(C)CCCNCCCN(C)C	7.49
C[n+]1cccc(C(N)=O)c1	3.76
CC1CCCN(CC(O)CN)C1 (stereo not drawn)	7.32
CCCCCCCCCCC(N)=O	15.3
COc1ccc2c(c1O)-c1cccc3c1C(C2)N(C)CC3 (stereo not drawn)	9.69
CC1(N)CCC(C(C)(C)N)CC1 (stereo not drawn)	7.19
CCN(CC)CCNC(=O)c1ccc(N)cc1	7.73
Cc1cc(C)nc(C)c1	7.46
OC1CCCc2c1[nH]c1ccccc21 (stereo not drawn)	11.4
CC1CC(C)(C)Nc2c(O)cccc21 (stereo not drawn)	8.99
Nc1cc(N)cc(C(=O)O)c1	4.34
CC1Cc2ccccc2N1C(=O)CN1CCN(C)CC1 (stereo not drawn)	8.74
CNC(C)=O	2.1
C=Cc1ccc(N)cc1	8.31
O=C(NN=CC=NNC(=O)c1ccccn1)c1ccccn1	8.62
O=C(Cn1ccc(=O)[nH]c1=O)NCCO	2.12
c1cc(-c2nn[nH]n2)cc(-n2cccn2)c1	9.34
CCCN1CCCC(C(N)=O)C1 (stereo not drawn)	6.49

Compound	LC retention time [min]
Cc1cc(N)c(N)cc1C	7.98
CC[N+](CC)(CC)Cc1ccccc1	8.32
CNC(=O)NC	1.96
Cc1ccc(-n2c(O)c(C=Nc3ccc(O)cc3C)c(=O)[nH]c2=O)cc1	10.9
Nc1nc2c([nH]c(=O)n2C2CC(O)C(CO)O2)c(=O)[nH]1 (stereo not drawn)	6.05
CCc1ccc(N2CC(C(=O)O)CC2=O)cc1 (stereo not drawn)	10.5
Cc1ccc2c(c1)C1CN(C)CCC1N2C(=S)NC1CCCCC1 (stereo not drawn)	12.2
O=C1c2ccccc2C(O)(c2ccccc2)N1C(c1ccccc1)c1ccccc1 (stereo not drawn)	16.8
CC(=O)Nc1cc(NC(C)=O)nc(NC(C)=O)n1	7.21
C=CCC(N)(CC=C)C1=CC(CC(=C)C)NC(CC(=C)C)C1 (stereo not drawn)	8.79
CCCC(=O)Nc1cccc(C(=O)Nc2ccc(C(=O)O)cc2)c1	10.5
NCCCP(=O)(O)O	1.3
Cn1c(=O)n(C)c2cc(N)ccc21	6.8
CC(C)CNC(=O)C(=O)Nc1ccc(N(C)C)cc1	9.98
NCC(=O)c1ccccc1	7.35
CCNc1ccccc1C	8.47
c1ccc(N2CCNCC2)cc1	8
CN1Cc2ccccc2CC1C(=O)O (stereo not drawn)	6.42
Cc1cc(N)c2ccccc2[n+]1CCCCCCCCCC[n+]1c(C)cc(N)c2ccccc21	10.7
O=c1c(Cc2ccccc2)c(O)c2ccccc2n1Cc1ccccc1	15.2
CCCc1cc2c(cc1N)OCO2	9.27

More lines, now with the values ahead:

LC retention time [min]	Compound
15.8	CN(c1nc(-c2ccc(C(C)(C)C)cc2)nc2ccccc12)C1CCCCC1
14.3	CCOc1cc(NC(C)=O)ccc1C(=O)NN=Cc1cccc(Oc2ccccc2)c1
11.6	COc1ccc(-c2ccccc2)cc1N
11.5	COc1ccc2cnn(-c3ccccc3)c(=O)c2c1OC
16.8	Cc1ccc2[nH]c(-c3ccccc3)cc2c1
11.3	c1ccc(-c2ccc3ccccc3n2)nc1
11.9	c1ccc(-c2cnc(-c3ccncc3)o2)cc1
7.6	NCc1ccccc1
9.82	Cc1ccc2[nH]c(-c3cc[n+](C)cc3)cc2c1
9.09	Nc1ccc2cc3ccc(N)cc3nc2c1
11.3	CN(C)CCCN1c2ccccc2Sc2ccccc21
14	CCCNC(=O)Nc1ccc2c(c1)oc1ccccc12
14.7	COc1cccc(OC)c1C(=O)C=Cc1ccccc1
12.5	CCn1c(-c2ccccc2)csc1=Nc1ccc(C)c(C)c1
19.2	COc1ccccc1NC(=O)c1ccc(COc2ccc3c(c2)CCC3)cc1
9.59	NC(=S)NCCc1ccccc1
11	Nc1ccc(C(=O)N2CCC(c3ccccc3)C2)cc1 (stereo not drawn)
10.7	CCOC(=O)c1cnc2ccccc2n1
13.6	Cc1ccc(C(=O)NCCc2c(C)[nH]c3ccccc23)cc1
11.1	CC(=O)c1ccc2c(c1)N(CCCN(C)C)c1ccccc1S2
13.4	Cc1ccc(-c2ccc3ccccc3n2)cc1

LC retention time [min]	Compound
7.56	Nc1ccc2cc[nH]c2c1
11.6	CN(C)CCC=C1c2ccccc2C=Cc2ccccc21
9.6	CN1C(=O)NC(c2ccc(O)cc2)C2=C1CN(Cc1ccccc1)C2=O (stereo not drawn)
8.55	CN(C)CCNC1=CC(=O)CC(c2ccccc2)C1 (stereo not drawn)
7.26	Cn1cnc2ccccc21
14.1	Cc1cccc(N2CN(Cc3ccccc3)CNC2=S)c1C
11.1	CC(CCc1ccccc1)NC(=S)Nc1cccnc1 (stereo not drawn)
8.69	COc1ccc(C2=C(N)C(=O)NC2=O)cc1OC
11.9	O=C(O)CCc1ccc(-c2ccccc2)[nH]1
14.2	COc1ccc2occ(C(=O)c3ccccc3C)c(=O)c2c1
13	Cc1cc(C=O)c(C)n1-c1ccccc1
10.8	CC(=O)c1cc2ccccc2oc1=O
10.1	CN(C)CCN(Cc1ccccc1)c1ccccn1
17	CCOC(=O)c1c(C)n(-c2ccccc2)c2ccc(OC(C)=O)cc12
12.7	COc1ccc(-c2cc(=O)c3ccc(OC)c(OC)c3o2)cc1OC
18.1	c1ccc(C2=Nc3ccccc3Oc3ccccc32)cc1
18.9	COc1ccc(Oc2ccc(-n3c(C)ccc3C)cc2)cc1
15.3	COc1ccccc1C=NNC(=O)c1ccc(C(C)(C)C)cc1
12.6	CC1=NC(=O)NC(c2ccccc2)C1C(=O)OCc1ccccc1 (stereo not drawn)
8.96	O=C(NN=Cc1ccccc1)c1ccncc1

— the RepoRT retention time repository
